Assay results reported in patent US12391737B2, “Soluble NPY2 receptor agonists” (Boehringer Ingelheim International GmbH, priority 2020, dated 2025).
*1 amine or outer side, *2 acyl side, *3 side chain or, on linkers, in order; H or OH if unused. Where a SMILES comes first, the peptide text is derived from it. Side-chain parts run from the residue outwards. The star is where a group is joined. C18 diacid = O=C(O)CCCCCCCCCCCCCCCCC(=O)*; γGlu = O=C(O)[C@H](CCC(=O)[*:2])N[*:1]; Isovaleryl = CC(C)CC(=O)*; Ahx = NCCCCCC(=O)O

Legend:
[1] = target: T1, Human Neuropeptide Y2 Receptor (Homo sapiens, UniProt P49146); assay: Radioligand binding competition assay (RLB); details: Table 3, 125I-PYY(1-36) competition; read-out: Ki
T1 construct: purchased CHEMICON HTS066M
T1 sequence (P49146 1-381): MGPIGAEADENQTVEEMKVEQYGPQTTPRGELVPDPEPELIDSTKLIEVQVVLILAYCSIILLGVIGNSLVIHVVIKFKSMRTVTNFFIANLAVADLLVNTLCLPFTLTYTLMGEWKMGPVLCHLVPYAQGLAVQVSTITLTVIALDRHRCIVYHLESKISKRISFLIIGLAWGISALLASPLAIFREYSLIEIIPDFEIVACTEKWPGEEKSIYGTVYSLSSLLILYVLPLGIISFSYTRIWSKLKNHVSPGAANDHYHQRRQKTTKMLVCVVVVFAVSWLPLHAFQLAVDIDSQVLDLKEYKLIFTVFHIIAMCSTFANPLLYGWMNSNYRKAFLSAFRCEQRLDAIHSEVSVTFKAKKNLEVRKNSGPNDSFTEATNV
Procedure: The filtration RLB assay was carried out in 96-well plates in a final volume of 100 μl per well. Freeze-dried test peptides were dissolved in 100% dimethyl sulfoxide (DMSO) to stock solutions of 1 mM and serial dilutions were performed in assay buffer (50 mM HEPES, 5 mM MgCl2, 1 mM CaCl2, pH 7.4) containing 0.2% ovalbumin. […] Next, 80 μL membranes (HTS066M, ChemiSCREEN™ Human Neuropeptide Y2 Receptor Membrane Preparation, CHEMICON) were added to each well to give a final protein concentration of 0.5 μg/well. The plates were sealed and incubated at room temperature for 2 hours in a plate shaker set at 400 rpm. The incubation was stopped by vacuum filtration onto 0.5% polyethylene amine (PE) presoaked GF/C filters using a 96-well FilterMate™ harvester (Perkin Elmer) followed by four washes with 300 μl/well ice-cold wash buffer (50 mM HEPES, 500 mM NaCl, pH7.4). Filter plates were then dried for 60 min at room temperature and the bottom of the plates was sealed with backing tape UniFilter-96. Finally, 50 μl/well scintillation counter cocktail (Microscint20, Packard) was added and the radioactivity was counted in the Packard TopCount NXT scintillation counter. IC50 values (the half maximal inhibitory concentration of the agonist) were calculated by nonlinear regression analysis of sigmoidal dose-response curves.

Solubility determination = details: for Sol6: pH 6; for Sol7: pH 7
Procedure: Peptides (as TFA salts) were weighed out in a filter unit (Mini-UniPrep Syringeless Filter 0.45 μm, Whatman), and 0.1 M sodium diphosphate buffer at pH 6.4 or 7.0 was added to achieve 10 mg/ml final concentration. The peptide was dissolved by shaking the filter unit horizontally at 600 rpm for 2 hours at room temperature. The sample was filtered, to remove any insoluble particles and diluted to 1 mg/ml in 50% acetonitrile. The control was prepared by weighing out the corresponding peptide and dissolving it in 50% acetonitrile to final concentration of 1 mg/ml. Both the control and sample were analysed with reversed phase chromatography. The area under the peak of the sample was compared to the control and the solubility was calculated based on that ratio.
The pH was measured and recorded for each sample.
System: UltiMate 3000 UPLC, ThermoFisher
Mobile phase A: 5% acetonitrile, 95% water, 0.03% trifluoracetic acid.
Mobile phase B: 95% acetonitrile, 5% water, 0.03% trifluoracetic acid.
Gradient: 0-100% mobile phase B (2 mins.)
Column temperature: 50° C.

CC(C)CC(=O)N[C@@H](C)C(=O)N1CCC[C@H]1C(=O)N[C@@H](CCC(=O)O)C(=O)N[C@@H](CCCCNC(=O)CCCCCNC(=O)CC[C@H](NC(=O)CCCCCCCCCCCCCCCCC(=O)O)C(=O)O)C(=O)N1CCC[C@H]1C(=O)N[C@@H](CCC(=O)O)C(=O)N[C@@H](CCC(=O)O)C(=O)N[C@@H](CC(=O)O)C(=O)N[C@@H](C)C(=O)N[C@@H](CO)C(=O)N[C@@H](CCC(=O)O)C(=O)N[C@@H](C)C(=O)N[C@@H](CCC(=O)O)C(=O)N[C@@H](CC(C)C)C(=O)N[C@@H](CCC(N)=O)C(=O)N[C@@H](CCCNC(=N)N)C(=O)N[C@@H](Cc1ccc(O)cc1)C(=O)N[C@@H](Cc1ccc(O)cc1)C(=O)N[C@H](C(=O)N[C@@H](CO)C(=O)N[C@@H](CC(C)C)C(=O)N[C@@H](CCCNC(=N)N)C(=O)N[C@@H](Cc1c[nH]cn1)C(=O)N[C@@H](Cc1ccc(O)cc1)C(=O)N[C@@H](Cc1ccc(O)cc1)C(=O)N[C@@H](CC(N)=O)C(=O)N[C@@H](Cc1c[nH]c2ccccc12)C(=O)N[C@@H](CC(C)C)C(=O)N[C@H](C(=O)N[C@@H](CCCNC(=N)N)C(=O)N[C@@H](CCC(N)=O)C(=O)N[C@@H](CCCNC(=N)N)C(=O)N[C@@H](Cc1ccc(O)cc1)C(N)=O)[C@@H](C)O)C(C)C [Compound 80, N{alpha-4}-(3-methylbutanoyl)-N{epsilon-7}-(6-[(4S)-4-carboxy-4-(17-carboxyheptadecanamido)butanamido]hexanoyl)-[4A,7K,9E,14E,15A,18Q,22V,28Y,30W,31L]-hPYY(4-36)]
Ki [1]: 4.62 nM | Sol6 (Solubility determination): 8.1 mg/mL | Sol7 (Solubility determination): 8.2 mg/mL

CC(C)CC(=O)N[C@@H](C)C(=O)N1CCC[C@H]1C(=O)N[C@@H](CCC(=O)O)C(=O)N[C@@H](CCCCNC(=O)CCCCCNC(=O)CC[C@H](NC(=O)CCCCCCCCCCCCCCCCC(=O)O)C(=O)O)C(=O)N1CCC[C@H]1C(=O)N[C@@H](CCC(=O)O)C(=O)N[C@@H](C)C(=O)N[C@@H](CC(=O)O)C(=O)N[C@@H](CO)C(=O)N[C@@H](CO)C(=O)N1CCC[C@H]1C(=O)N[C@@H](CCC(=O)O)C(=O)N[C@@H](CCC(=O)O)C(=O)N[C@@H](CC(C)C)C(=O)N[C@@H](CCC(N)=O)C(=O)N[C@@H](CCCNC(=N)N)C(=O)N[C@@H](Cc1ccc(O)cc1)C(=O)N[C@@H](Cc1ccc(O)cc1)C(=O)N[C@H](C(=O)N[C@@H](CO)C(=O)N[C@@H](CC(C)C)C(=O)N[C@@H](CCCNC(=N)N)C(=O)N[C@@H](Cc1c[nH]cn1)C(=O)N[C@@H](Cc1ccc(O)cc1)C(=O)N[C@@H](Cc1ccc(O)cc1)C(=O)N[C@@H](CC(N)=O)C(=O)N[C@@H](Cc1c[nH]c2ccccc12)C(=O)N[C@@H](CC(C)C)C(=O)N[C@H](C(=O)N[C@@H](CCCNC(=N)N)C(=O)N[C@@H](CCC(N)=O)C(=O)N[C@@H](CCCNC(=N)N)C(=O)N[C@@H](Cc1ccc(O)cc1)C(N)=O)[C@@H](C)O)C(C)C [Compound 29, N{alpha-4}-(3-methylbutanoyl)-N{epsilon-7}-(6-[(4S)-4-carboxy-4-(17-carboxyheptadecanamido)butanamido]hexanoyl)[4A,7K,9E,10A,12S,18Q,22V,28Y,30W,31L]-hPYY(4-36)] (Isovaleryl-APEK([Ahx-γGlu-C18 diacid])PEADSSPEELQRYYVSLRHYYNWLTRQRY-NH2)
Ki [1]: 1.36 nM | Sol6 (Solubility determination): 9.9 mg/mL | Sol7 (Solubility determination): 10.0 mg/mL

CC(C)CC(=O)N[C@@H](C)C(=O)N1CCC[C@H]1C(=O)N[C@@H](CCC(=O)O)C(=O)N[C@@H](CCCCNC(=O)CCCCCNC(=O)CC[C@H](NC(=O)CCCCCCCCCCCCCCCCC(=O)O)C(=O)O)C(=O)N1CCC[C@H]1C(=O)N[C@@H](CCC(=O)O)C(=O)N[C@@H](CCC(=O)O)C(=O)N[C@@H](CO)C(=O)N[C@@H](C)C(=O)N[C@H](C(=O)N1CCC[C@H]1C(=O)N[C@@H](CCC(=O)O)C(=O)N[C@@H](CCC(=O)O)C(=O)N[C@@H](CC(C)C)C(=O)N[C@@H](CCC(N)=O)C(=O)N[C@@H](CCCNC(=N)N)C(=O)N[C@@H](Cc1ccc(O)cc1)C(=O)N[C@@H](Cc1ccc(O)cc1)C(=O)N[C@H](C(=O)N[C@@H](CO)C(=O)N[C@@H](CC(C)C)C(=O)N[C@@H](CCCNC(=N)N)C(=O)N[C@@H](Cc1c[nH]cn1)C(=O)N[C@@H](Cc1ccc(O)cc1)C(=O)N[C@@H](Cc1ccc(O)cc1)C(=O)N[C@@H](CC(N)=O)C(=O)N[C@@H](Cc1c[nH]c2ccccc12)C(=O)N[C@@H](CC(C)C)C(=O)N[C@H](C(=O)N[C@@H](CCCNC(=N)N)C(=O)N[C@@H](CCC(N)=O)C(=O)N[C@@H](CCCNC(=N)N)C(=O)N[C@@H](Cc1ccc(O)cc1)C(N)=O)[C@@H](C)O)C(C)C)[C@@H](C)O [Compound 96, N{alpha-4}-(3-methylbutanoyl)-N{epsilon-7}-(6-[(4S)-4-carboxy-4-(17-carboxyheptadecanamido)butanamido]hexanoyl)-[4A,7K,9E,11S,13T,18Q,22V,28Y,30W,31L]-hPYY(4-36)]
Ki [1]: 3.06 nM | Sol6 (Solubility determination): 8.8 mg/mL | Sol7 (Solubility determination): 8.7 mg/mL

CC[C@H](C)[C@H](NC(=O)[C@H](CCC(=O)O)NC(=O)[C@H](CCC(=O)O)NC(=O)[C@@H]1CCCN1C(=O)[C@@H](NC(=O)[C@H](C)NC(=O)[C@H](CC(=O)O)NC(=O)[C@H](CCC(=O)O)NC(=O)[C@H](CCC(=O)O)NC(=O)[C@@H]1CCCN1C(=O)[C@H](CCCCNC(=O)CCCCCNC(=O)CC[C@H](NC(=O)CCCCCCCCCCCCCCCCC(=O)O)C(=O)O)NC(=O)[C@H](CCC(=O)O)NC(=O)[C@@H]1CCCN1C(=O)[C@H](C)NC(=O)CC(C)C)[C@@H](C)O)C(=O)N[C@@H](CCC(N)=O)C(=O)N[C@@H](CCCNC(=N)N)C(=O)N[C@@H](Cc1ccc(O)cc1)C(=O)N[C@@H](Cc1ccc(O)cc1)C(=O)N[C@@H](CCC(=O)O)C(=O)N[C@@H](CO)C(=O)N[C@@H](CC(C)C)C(=O)N[C@@H](CCCNC(=N)N)C(=O)N[C@@H](Cc1c[nH]cn1)C(=O)N[C@@H](Cc1ccc(O)cc1)C(=O)N[C@@H](Cc1ccc(O)cc1)C(=O)N[C@@H](CC(N)=O)C(=O)N[C@@H](Cc1c[nH]c2ccccc12)C(=O)N[C@@H](CC(C)C)C(=O)N[C@H](C(=O)N[C@@H](CCCNC(=N)N)C(=O)N[C@@H](CCC(N)=O)C(=O)N[C@@H](CCCNC(=N)N)C(=O)N[C@@H](Cc1ccc(O)cc1)C(N)=O)[C@@H](C)O [Compound 191, N{alpha-4}-(3-methylbutanoyl)-N{epsilon-7}-(6-[(4S)-4-carboxy-4-(17-carboxyheptadecanamido)butanamido]hexanoyl)-[4A,7K,9E,13T,17I,18Q,22E,28Y,30W,31L]-hPYY(4-36)]
Ki [1]: 8.32 nM | Sol6 (Solubility determination): >10.0 mg/mL | Sol7 (Solubility determination): >10.0 mg/mL
